The results in this text go back to patent publication US6455578B1, “Aromatic derivatives and iron complexes thereof for the use as normalizing agents of the iron level” (Laboratoire Medidom S.A., priority 1998, dated 2002).

A word on the melting point: it is the temperature of the solid-liquid transition.

Data set [1] in a line: In vivo tests on permeation of rat erythrocytes / detection in rat tissues and excretion. The note with it: rats, 20 mg per Kg in DMSO by intraperitoneal route; 15, 30 and 60 minutes after treatment.
Test in data set [2]: as above
The following applies: for Qualitative detection in Erythrocytes / Qualitative detection in Plasma / Qualitative detection in Brain / Qualitative detection in Liver / Qualitative detection in Urine: rat, single oral dose 20 mg per Kg. The method, then:
The tests are performed on male rats Sprague-Dawley weighting from 250 to 300 g.
The chelating agent 3-hydroxy-2-methyl-4H-1-benzopyran-4-one prepared as in Example 1, vehiculated by 4 parts of β-cyclodextrine for each part of chelating agent, is administered to the rats in a single oral dose comprising 20 mg of chelating agent per Kg of body weight.
The chelating agent 3-hydroxy-2-(5-hydroxypentyl)-4H-1-benzopyran-4-one prepared as in Example 3 is administered to the rats in a single oral dose, comprising 2% of methyl cellulose and 20 mg of chelating agent per Kg of body weight.

A further data set concerns erythrocytes. As to the kind of experiment: In vitro tests on permeation into erythrocytes. The format is in vitro ADME, rat. The note with it: for found in the aqueous medium containing the phosphate buffer after resuspension of loaded erythrocytes: loaded erythrocytes resuspended in fresh buffer; for found in the aqueous medium containing the phosphate buffer after resuspension of loaded erythrocytes / found in the plasmatic medium after resuspension of loaded erythrocytes / distribution between previously overloaded erythrocytes and the aqueous medium of resuspension: further 30 minutes at 37 C; for found in the plasmatic medium after resuspension of loaded erythrocytes: loaded erythrocytes resuspended in their plasma; for distribution between previously overloaded erythrocytes and the aqueous medium of resuspension: loaded erythrocytes resuspended in fresh plasma or fresh buffer; for time in which a balance between intracellular and extracellular environment is reached: rat erythrocytes. The method, then:
Solutions of 3-hydroxy-2-methyl-4H-1-benzopyran-4-one prepared as in Example 1 and the related Fe(III) complex obtained in acetone as in Example 4 were used for suitable sampling in incubation flasks. For the complex acetone is evaporated, and the biologic samples are then added to the residue. Whole blood of rat deprived of leucocytes, or alternatively erythrocytes washed and resuspended in 127 mM of sodium phosphate 50% buffer (pH=7.4) and containing 23 mM of NaCl, were added into the incubation flasks and incubated at 37° C. for 15 and respectively 30 minutes.
At those times erythrocytes were separeted by centrifugation and separately extracted together with the supernatants with 2 volumes of ethyl acetate. The related quantities of the tested substances were measured by spectrophotometry in ethyl acetate and compared with suitable standards. After 30 minutes of incubation the 3-hydroxy-2-methyl-4H-1-benzopyran-4-one as well as the related Fe(III) complex were found in the erythrocytes for 51% and for 49% in the aqueous medium. After 30 minutes of incubation 50% of the sedimented erythrocytes are resuspended in their fresh plasma and the remaining 50% in fresh buffer.
Erhytrocytes of rat were separated from their plasma deprived of leucocytes. Part of the erythrocytes were resuspended in sodium phosphate 50% buffer (pH=7.4), and another part of the erythrocytes were joined to part of their plasma so to obtained a 50% hematocrit. To both suspensions were added alternatively 100 mg/l of 3-hydroxy-2-(5-hydroxypentyl)-4H-benzopyran-4-one prepared as in Example 3 and 50 mg/l of the related Fe(III) complex prepared as in Example 5, and the incubation was made at 37° C. After 30 minutes the erythrocytes were separated by centrifugation and extracted separately together with supernatants with ethyl acetate. The quantities of the tested substances were measured by spectrophotometry in ethyl acetate and compared to suitable standards.
After 30 minutes incubation the 40% of 3-hydroxy-2-(5-hydroxypenthyl)-4H-1-benzopyran-4-one, as well as of the ferric complex thereof, were found in the erythrocytes and the remaining 60% in the medium represented by plasma. When the medium is the phosphate buffer the 60% of the tested compounds were found in erythrocytes and the remaining 40% in the medium.
After sedimentation 50% of the erythrocytes containing the tested compounds was resuspended in their plasma and the remaining 50% in fresh buffer. After a further 30 minutes incubation at 37° C. 60% of 3-hydroxy-2-(5-hydroxypentyl)-4H-1-benzopyran-4-one and of the related complex were found in the plasmatic medium and the remaining 40% in the aqueous medium containing the phosphate buffer. Therefore the chelating agent as well as the related ferric complex do permeate into cellular membranes in both directions, and are uniformly distributed in the intracellular and in the extracellular environment.

The nature of data set [3]: Partition test between n-octanol and aqueous solution pH 7.4. Format: physicochemical. The note with it: for partition between n-octanol and aqueous solution (result in words): n-octanol / aqueous 20 mM tris(hydroxymethyl)aminomethane chlorhydrate pH 7.4, Example 7: concentration 100 mM. The protocol:
In particular, partition experiments have been carried out between n-ottanol and an aqueous solution 20 mM of tris(hydroxymethyl)aminomethane chlorohydrate brought to pH=7.4 by adding sodium phosphate, obtaining values of the ripartition coefficient, expressed as the ratio between the concentration of the compound in the organic phase and that in the aqueous phase, tipically higher than 20, for the present formula (I) compounds as well as for the Fe (III) complexes thereof.
The partition coefficient between n-octanol and an aqueous solution 20 mM of tris(hydroxymethyl)aminomethane brought to pH=7.4 by the addition of sodium phosphate has been determined by spectrophotometry at room temperature for 3-hydroxy-2-methyl-4H-1-benzopyran-4-one and for the related Fe(III) complex.
In the aqueous solution the 3-hydroxy-2-methyl-4H-1-benzopyran-4one obtained as described in Example 1 was dissolved in the quantity sufficient to have a concentration equal to 10^−4 M. 5 ml of said solution were centrifuged with 5 ml of n-octanol, and the two resulting phases were separated for a concentration determination on each by spectrophotometry.
The partition coefficient, expressed as the ratio between the concentration of the compound in n-octanol and its concentration in the aqueous solution, resulted 24. In the same aqueous solution above described the Fe(III) complex obtained as in Example 4 was dissolved, in the sufficient quantity to obtain a concentration equal to 2×10^−4 M. 5 ml of said solution are centrifuged with 5 ml of n-octanol, then the two resulting phases were separated for a concentration determination on each by spectrophotometry. A partition coefficient equal to 25 was obtained.
According to the procedure described in Example 6 partition data were determined between n-octanol and an aqueous solution 20 mM of tris(hydroxymethyl)aminomethane chlorhydrate brought to pH 7.4 by addition of sodium phosphate, for 3-hydroxy-2-(5-hydroxypentyl)-4H-1-benzopyran-4-one prepared as in Example 3 as well as for the related Fe(III) complex prepared as in Example 5.
In the aqueous solution 3-hydroxy-2-(5-hydroxypentyl)-4H-1-benzopyran-4-one as prepared in Example 3 was dissolved so to obtain a concentration equal to 100 mM. 5 ml of said solution were centrifuged with 5 ml of n-octanol, then the two resulting phases, the aqueous and the organic one, were separated for a concentration determination on each by spectrophotometry.
The same experiment was repeated by dissolving the Fe(III) complex prepared as in Example 5 in the above described aqueous solution.

Data set [4] is described as follows: Stability constant of the Fe(III) complex by cyclic voltammetry. Format: physicochemical. The method, then:
wherein R5 is CH3, has been measured by voltammetry with a Pt electrode as the working electrode and with a calomel electrode as the reference electrode, obtaining a stability constant equal to 3.0×10^10.
The complexation cynetics has been moreover studied by cyclic voltammetry with a Pt electrode as the working electrode and a calomel electrode as the reference electrode, in the following conditions:ferric perchlorate (7 mg) is dissolved in 20 ml of a NaCl solution 150 mM containing 5% of DMSO, and this solution is put into the voltammetric cell for the plot registration; from this plot the half-wave potential for the ferric salt can be deduced: (E½)s Fe^3+/Fe^2+=0.420 V.
3-hydroxy-2-methyl-4H-1-benzopyran-4-one (10.5 mg) is dissolved in DMSO (3 ml), and with the so obtained solution 4 additions are made to the voltammetric cell, registering the cyclic voltammetric plot after every addition. […]
The stability constant of the complex is calculated according to the following formula: [formula]
wherein (E½)s e (E½)c are the half-wave potential of the salt and, respectively, of the complex above reported, n is the number of electrons, β is the stability constant of the complex and c is its concentration, and p is the number of chelating agent molecules in the complex. The so calculated value of the stability constant is […].

[5] abbreviates: medium phosphate buffer pH 7.4, 37 C, 30 minutes, 100 mg/l ligand or 50 mg/l complex.
Setting [6] is: medium plasma, 50% hematocrit, 37 C, 30 minutes, 100 mg/l ligand or 50 mg/l complex.
Where [7] appears, read: male Sprague-Dawley rats, single oral dose 20 mg per Kg with beta-cyclodextrine.
Where [8] appears, read: rat whole blood deprived of leucocytes or washed erythrocytes in phosphate buffer pH 7.4, 37 C, 30 minutes incubation.

Molecule `O=c1c(O)c(CCCCCO)oc2ccccc12` [3-hydroxy-2-(5-hydroxypentyl)-4H-1-benzopyran-4-one] came in with a melting point of 111 to 112 °C. In addition, in data set [1], the presence in erythrocytes entry was “has been revealed”. Further, in data set [2] (male Sprague-Dawley rats, single oral dose 20 mg per Kg in 2% methyl cellulose, 12, 24 and 48 hours from administration), the presence in urine entry is recorded as “has been revealed”. Also, the presence in plasma result in data set [2] (rats, 20 mg per Kg in DMSO by intraperitoneal route, 15, 30 and 60 minutes after treatment) is given as “has been revealed”. In the data set with erythrocytes, the “found in the aqueous medium containing the phosphate buffer after resuspension of loaded erythrocytes” value was found to be 40% and the “found in the plasmatic medium after resuspension of loaded erythrocytes” value amounted to 60%. Besides, in the data set on erythrocytes (setting [5]), the found in erythrocytes is given as 60% and the “found in the medium” value turned out to be 40%. Further, in the data set with erythrocytes (setting [6]), the “found in the erythrocytes” value is 40% and the “found in the medium” value was found to be 60%. Further, the “partition between n-octanol and aqueous solution (result in words)” value in data set [3] is listed as “completely pass in the alcoholic phase”.

Molecule `Cc1oc2ccccc2c(=O)c1O` [3-hydroxy-2-methyl-4H-1-benzopyran-4-one] gave a melting point of 179 to 180 °C. In data set [2] (setting [7]), the “presence in urine (onset)” value is “starting from twenthyfourth hour”; the “time of maximum presence (erythrocytes, brain and liver)” value was “maximum in the fourth hour”. For the same molecule, the “presence in erythrocytes, brain and liver (first detection)” value in data set [2] (male Sprague-Dawley rats, single oral dose 20 mg per Kg with beta-cyclodextrine, spectrophotometry and fluorimetry) is listed as “found already in the first hour”. In data set [2] (1/2 hr after administration), the “Qualitative detection in Erythrocytes” value is recorded as “p(+)” and the “Qualitative detection in Plasma” value is on record as “p(+)”. In data set [2] (1 hr after administration), the “Qualitative detection in Brain” value is recorded as “p(+)”, the “Qualitative detection in Erythrocytes” value was “p(++)”, the “Qualitative detection in Liver” value is given as “p(+)” and the “Qualitative detection in Plasma” value is “p(++)”. In addition, in data set [2] (4 hr after administration), the “Qualitative detection in Brain” value was “p(++)”, the “Qualitative detection in Erythrocytes” value is recorded as “p(+++)”, the “Qualitative detection in Liver” value is given as “p(+++)” and the “Qualitative detection in Plasma” value is on record as “p(++)”. Besides, the “Qualitative detection in Urine” value in data set [2] (4 hr after administration) is reported as “p(+)”. In data set [2] (24 hr after administration), the “Qualitative detection in Brain” value was “p(++)”, the “Qualitative detection in Liver” value was “p(++)” and the “Qualitative detection in Urine” value is “p(++)”. For the same molecule, in data set [2] (48 hr after administration), the “Qualitative detection in Urine” value is “p(+++)”. Further, the “distribution between previously overloaded erythrocytes and the aqueous medium of resuspension” value in the data set on erythrocytes was “equally distributed”. Besides, in the data set with erythrocytes (37 C), the “time in which a balance between intracellular and extracellular environment is reached” value is reported as “ca. 30 minutes”. Further, in the data set on erythrocytes (setting [8]), the “found in the aqueous medium” value is 49% and the “found in the erythrocytes” value turned out to be 51%. Besides, the logD in data set [3] (n-octanol / aqueous 20 mM tris(hydroxymethyl)aminomethane pH 7.4, room temperature, spectrophotometry, ligand 10^-4 M, complex 2x10^-4 M, read-out: partition coefficient (concentration in n-octanol / concentration in aqueous solution) (converted)) is 1.38.

For “Fe(III) complex of 3-hydroxy-2-(5-hydroxypentyl)-4H-1-benzopyran-4-one”, in the data set with erythrocytes, the “found in the aqueous medium containing the phosphate buffer after resuspension of loaded erythrocytes” value is given as 40% and the “found in the plasmatic medium after resuspension of loaded erythrocytes” value is on record as 60%. Moreover, in the data set on erythrocytes (setting [5]), the found in erythrocytes is 60% and the “found in the medium” value was 40%. In the data set on erythrocytes (setting [6]), the “found in the erythrocytes” value is recorded as 40% and the “found in the medium” value came out at 60%. The “partition between n-octanol and aqueous solution (result in words)” value in data set [3] was “completely pass in the alcoholic phase”.

Take “Fe(III) complex of 3-hydroxy-2-methyl-4H-1-benzopyran-4-one”: the “distribution between previously overloaded erythrocytes and the aqueous medium of resuspension” value with erythrocytes is “equally distributed”. For the same molecule, in the data set with erythrocytes (37 C), the “time in which a balance between intracellular and extracellular environment is reached” value is “ca. 30 minutes”. Moreover, in the data set on erythrocytes (setting [8]), the “found in the aqueous medium” value is 49% and the “found in the erythrocytes” value worked out at 51%. Further, the “partition coefficient (concentration in n-octanol / concentration in aqueous solution)” value in data set [3] (n-octanol / aqueous 20 mM tris(hydroxymethyl)aminomethane pH 7.4, room temperature, spectrophotometry, ligand 10^-4 M, complex 2x10^-4 M) was 25. Further, in data set [4] (cyclic voltammetry, after first addition of 0.5 ml chelating agent solution in DMSO), the “half-wave potential of the complex (E1/2) Fe3+/Fe2+” value is 0.120 V. Besides, the “stability constant of the Fe(III) complex” value in data set [4] (voltammetry, Pt working electrode, calomel reference electrode, NaCl 150 mM containing 5% DMSO) was 3.0×10^10.
